The nature of data set [1]: absorbance and fluorescence spectra in DMSO. Type of data set: physicochemical. An excerpt: The absorbance and fluorescence spectra of compounds 1-6 in dimethyl sulfoxide (DMSO) were investigated and the results are in Table 1.
Data set [2] addresses bovine serum albumin (BSA) (Bos taurus, UniProt P02769). As to the kind of experiment: fluorescence turn-on with BSA in PBS buffer. In kind it is binding. As to the method: In the aqueous buffer (0.5% DMSO, 10 mM of PBS, pH=7.4), the BSA binding-induced fluorescence turn-on was so large that it could be easily seen by naked eye. […] The intramolecular charge transfer along the D-A conjugated backbone plays a very important role in the environment-sensitivity of the flavone. All the evidence consistently pointed to the flavone dye entering the hydrophobic site of BSA.
Generally, the detection limit can be defined as the analyte concentration at which a 10% increase in fluorescence emission can be measured.
Therefore, the detection limits of compounds 1-6 were 2.6, 0.14, 0.59, 0.09, 14, and 3.4 μg/mL, respectively. For Off/On type fluorescent sensor, the Signal-to-Noise (S/N) ratio above 3:1 is considered reliable for visual evaluation. The visual recognizable detection limits of compounds 1-6 were calculated as 78, 4.2, 17.7, 2.7, 420, and 102 μg/mL, respectively. The reference range for serum albumin concentration in human blood plasma is approximately 35-50 mg/mL. Even in fish, the concentration of serum albumins can reach 0.5-5 mg/mL. The detection limits of the compounds were much lower than serum albumin concentration, indicating the capability for actual blood sample testing.

Data set [3] concerns serum albumin in monkey serum. As to the kind of experiment: fluorescence response to monkey serum. In kind it is binding. The conditions noted are these: 10 μM in 1 mL PBS. As to the method:
FIG. 18 provides a chart of fluorescence spectra changes and of compound 4 (10 μM, in 1 mL of PBS buffer solution) upon addition of different volume of monkey serum;
FIG. 19 provides a chart of fluorescent intensities (λ=505 nm) of compound 4 (10 μM, in 1 mL of PBS buffer solution) upon addition of different volume of monkey serum;
Serum albumin is known as the most abundant protein in blood serum. The probe's fluorescence response to serum albumin in real blood samples would be considered as an ideal sensing tool. In this example, 10 μM of compound 4 was dissolved in 1 mL of PBS buffer as a test solution. […] The detection limit (S/N>3) for monkey serum was calculated as 0.03 μL.

For data set [4], the target named is BSA, human serum albumin (HSA) (Bos taurus, UniProt P02769). The data set is described as follows: wash-free staining of proteins in SDS-PAGE gel. Type of data set: binding. The conditions noted are these: 2 hours staining, 10 mM dye, 0.3% SDS, no washing. As to the method: (§1) FIG. 20 provides fluorescence images of several proteins in electrophoresis gel stained by compound 4 before and after washing 1. BSA at 0.1 μg; 2. BSA at 1 μg; 3. BSA at 10 μg; 4. BSA at 100 μg; 5. HSA at 10 μg; 6. Fibrinogen at 10 μg; 7. Lysozyme at 10 μg; 8. Trypsin at 10 μg;
BSA, human serum albumin (HSA) (Bos taurus, UniProt P02769), sequence (P02769 25-607): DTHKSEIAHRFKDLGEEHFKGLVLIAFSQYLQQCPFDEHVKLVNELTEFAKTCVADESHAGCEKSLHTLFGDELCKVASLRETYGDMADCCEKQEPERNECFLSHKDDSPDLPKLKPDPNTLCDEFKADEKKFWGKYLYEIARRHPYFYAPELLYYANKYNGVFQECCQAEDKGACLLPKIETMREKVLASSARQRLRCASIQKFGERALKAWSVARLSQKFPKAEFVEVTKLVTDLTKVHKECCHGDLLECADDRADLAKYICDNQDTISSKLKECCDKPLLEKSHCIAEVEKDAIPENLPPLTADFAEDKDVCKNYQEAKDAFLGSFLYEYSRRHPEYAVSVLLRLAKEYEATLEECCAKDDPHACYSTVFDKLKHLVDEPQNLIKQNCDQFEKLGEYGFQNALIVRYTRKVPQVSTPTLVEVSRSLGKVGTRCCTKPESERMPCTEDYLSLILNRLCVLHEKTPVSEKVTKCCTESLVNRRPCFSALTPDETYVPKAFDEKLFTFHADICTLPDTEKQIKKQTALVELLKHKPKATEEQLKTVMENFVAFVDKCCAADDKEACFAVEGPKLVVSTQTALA
(§2) Various proteins were run on the 1-D SDS-PAGE minigels with running buffer (25 mM Tris, 192 mM glycine, 0.1% SDS pH 8.3) under 100 volts for 1.5 hrs. The minigels were then placed in the dye solution (10 mM of compound 4, 0.3% SDS, and AcOH/DMSO/H2O=5:10:85). […] Therefore, the discovered protein-staining reagent had the following advantages: (1) low interference of SDS to fluorescence, thereby eliminating the pretreatment; (2) very weak fluorescent in water and gels to eliminate the need for the washing process; (3) strong interaction with the proteins (serum albumin) to reduce the staining time; (4) a high signal-to-noise (S/N) ratio for the high contrast ratio of images.

In data set [5] the test system is BSA, human serum albumin (HSA). The data set is described as follows: wash-free staining of proteins in SDS-PAGE gel. In kind it is binding. The conditions noted are these: BSA, HSA vs fibrinogen, lysozyme, trypsin, 10 μg. As to the method: as §1, §2
[6] abbreviates: with BSA 1.0 mg/ml, 10 μM dye, 10 mM PBS, 0.5% DMSO, pH 7.4.
Where [7] appears, read: without BSA, 10 μM dye, 10 mM PBS, 0.5% DMSO, pH 7.4.

Structures are written as SMILES.

bovine serum albumin (BSA), sequence (P02769 25-607): as above

In the case of `COc1c(-c2ccc(N(C)C)cc2)oc2ccc(C)cc2c1=O` [compound 4, 2-(4-(dimethylamino)phenyl)-3-methoxy-6-methyl-4H-chromen-4-one], in data set [1], the Φ was found to be 37.6%, the λabs worked out at 390 nm and the λem came to 504 nm. For the same molecule, in data set [2] (BSA), the “detection limit (10% increase in fluorescence emission)” value was 0.09 µg/mL and the “visual recognizable detection limit (S/N above 3:1)” value was found to be 2.7 µg/mL. Further, the “F(+)/F(−) fluorescence intensity with BSA / without BSA” value in data set [2] (BSA 1.0 mg/ml, 10 μM dye, 10 mM PBS, 0.5% DMSO, pH 7.4) was found to be 1100. For the same molecule, in data set [2] (aqueous buffer, 0.5% DMSO, 10 mM PBS, pH 7.4), the “fluorescence in the absence of BSA” value is “almost no fluorescence”. Besides, in data set [2] (setting [6]), the “λabs(+)” value is 398 nm and the “λem(+)” value turned out to be 484 nm. Besides, in data set [2] (setting [7]), the “λabs(−)” value was 398 nm and the “λem(−)” value came out at 490 nm. The “detection limit (S/N>3) for monkey serum” value in data set [3] came out at 0.03 µL. The “fluorescence intensity enhancement at 505 nm” value in data set [3] (25 μL of serum sample) is recorded as 135 fold. Further, in data set [4], the “amount of BSA clearly observed in gel under a UV lamp” value is around 1 µg. Moreover, the “selectivity of protein staining in gel” value in data set [5] is “serum albumin proteins were selectively stained”.

(Values after US9636021B2, “Flavonoid compounds of low toxicity for biological imaging applications” (The University of Akron, priority 2014, dated 2017).)
